As usually defined, the IC50 is the point on the concentration scale where inhibition reaches its midpoint.

The values below come from paper PMC7073924, “2-Aminomethylene-5-sulfonylthiazole Inhibitors of Lysyl Oxidase (LOX) and LOXL2 Show Significant Efficacy in Delaying Tumor Growth” (Journal of Medicinal Chemistry, 2019).

Test [1] concerns the target T1, LOXL2 (Homo sapiens, UniProt Q9Y4K0).
T1 sequence (Q9Y4K0 26-774): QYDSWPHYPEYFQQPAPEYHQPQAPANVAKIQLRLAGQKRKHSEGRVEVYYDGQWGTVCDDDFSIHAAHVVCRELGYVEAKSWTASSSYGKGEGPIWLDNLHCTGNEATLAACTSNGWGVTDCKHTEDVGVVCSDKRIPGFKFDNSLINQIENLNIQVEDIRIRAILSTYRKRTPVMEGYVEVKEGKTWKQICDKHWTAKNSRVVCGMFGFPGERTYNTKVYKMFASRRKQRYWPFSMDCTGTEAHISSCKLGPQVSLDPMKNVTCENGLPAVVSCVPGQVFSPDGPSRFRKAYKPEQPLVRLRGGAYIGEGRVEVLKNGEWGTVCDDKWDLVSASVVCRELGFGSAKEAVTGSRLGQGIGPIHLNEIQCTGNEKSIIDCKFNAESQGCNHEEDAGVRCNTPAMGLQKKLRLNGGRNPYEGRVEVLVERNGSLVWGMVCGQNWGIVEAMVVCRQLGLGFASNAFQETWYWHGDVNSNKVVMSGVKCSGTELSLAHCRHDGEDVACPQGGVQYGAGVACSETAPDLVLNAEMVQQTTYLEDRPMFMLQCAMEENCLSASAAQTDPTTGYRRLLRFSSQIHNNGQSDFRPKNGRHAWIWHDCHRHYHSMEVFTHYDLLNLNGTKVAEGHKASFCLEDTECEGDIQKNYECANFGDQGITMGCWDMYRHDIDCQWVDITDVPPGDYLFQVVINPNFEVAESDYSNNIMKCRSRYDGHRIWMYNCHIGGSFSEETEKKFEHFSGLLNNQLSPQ
Nature of the test: LOXL2 enzyme assay (Promega ROS-Glo, cadaverine substrate). The class given is biochemical.
Experimental: (§1) LOXL2 and LOXL3 were purchased from R&D Systems. LOX, LOXL2, and LOXL3 catalytic activity were determined using the Promega ROS-Glo assay kit with cadaverine dihydrochloride as substrate, BAPN as the reference inhibitor control, a preincubation time of 20 min, 1 h, or 3 h, with nine dilutions from a top concentration of 10 μM or 100 μM.

In test [2] the target is T1, LOXL2. The class given is biochemical.
Experimental: The enzyme/inhibitor mixture was then diluted 100-fold into a solution containing all enzyme reaction components, and the activity of the enzyme was assessed.
LOXL2 catalytic activity was determined using the Amplex Red hydrogen peroxide assay kit with cadaverine dihydrochloride as substrate. […] The enzyme/inhibitor mixture was then diluted 100-fold into a solution containing substrate and detection reagents and read kinetically every 5 min.
In a further test the target is T2, LOX (Sus scrofa, UniProt P45845).
T2 sequence (P45845 1-249): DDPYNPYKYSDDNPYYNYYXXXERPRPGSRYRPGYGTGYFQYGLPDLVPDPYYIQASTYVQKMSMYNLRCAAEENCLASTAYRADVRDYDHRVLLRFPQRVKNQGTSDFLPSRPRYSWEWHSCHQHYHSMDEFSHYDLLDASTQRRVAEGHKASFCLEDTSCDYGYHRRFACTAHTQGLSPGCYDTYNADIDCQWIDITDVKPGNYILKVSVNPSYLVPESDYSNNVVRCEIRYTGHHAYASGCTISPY
Briefly: LOX enzyme assay (Promega ROS-Glo, cadaverine substrate). The class given is biochemical, pig.

Test [3] addresses T3, LOXL3 (Homo sapiens, UniProt P58215).
T3 sequence (P58215 26-753): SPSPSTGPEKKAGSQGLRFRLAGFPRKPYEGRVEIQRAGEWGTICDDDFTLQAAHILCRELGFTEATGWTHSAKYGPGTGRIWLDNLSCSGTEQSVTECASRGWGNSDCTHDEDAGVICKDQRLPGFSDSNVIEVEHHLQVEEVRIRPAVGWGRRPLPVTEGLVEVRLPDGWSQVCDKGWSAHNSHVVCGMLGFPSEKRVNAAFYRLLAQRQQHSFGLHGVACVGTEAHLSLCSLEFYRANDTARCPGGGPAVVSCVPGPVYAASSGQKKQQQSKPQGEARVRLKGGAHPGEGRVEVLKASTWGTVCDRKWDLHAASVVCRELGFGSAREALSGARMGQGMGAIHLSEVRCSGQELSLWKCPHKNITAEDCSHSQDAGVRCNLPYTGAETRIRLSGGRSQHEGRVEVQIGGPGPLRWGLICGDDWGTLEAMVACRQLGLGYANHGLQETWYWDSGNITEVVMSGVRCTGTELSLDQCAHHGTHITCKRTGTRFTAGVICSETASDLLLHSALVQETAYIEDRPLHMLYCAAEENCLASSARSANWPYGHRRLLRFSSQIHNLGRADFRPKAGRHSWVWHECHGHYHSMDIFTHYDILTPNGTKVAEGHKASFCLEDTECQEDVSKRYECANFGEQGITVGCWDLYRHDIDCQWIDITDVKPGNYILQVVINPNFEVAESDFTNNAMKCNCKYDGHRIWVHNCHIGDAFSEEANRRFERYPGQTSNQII
Briefly: LOXL3 enzyme assay (Promega ROS-Glo, cadaverine substrate). The class given is biochemical.
Experimental: as §1

A further test concerns the target T4, MAO-A (Homo sapiens, UniProt P21397).
T4 construct: purchased Sigma
T4 sequence (P21397 1-527): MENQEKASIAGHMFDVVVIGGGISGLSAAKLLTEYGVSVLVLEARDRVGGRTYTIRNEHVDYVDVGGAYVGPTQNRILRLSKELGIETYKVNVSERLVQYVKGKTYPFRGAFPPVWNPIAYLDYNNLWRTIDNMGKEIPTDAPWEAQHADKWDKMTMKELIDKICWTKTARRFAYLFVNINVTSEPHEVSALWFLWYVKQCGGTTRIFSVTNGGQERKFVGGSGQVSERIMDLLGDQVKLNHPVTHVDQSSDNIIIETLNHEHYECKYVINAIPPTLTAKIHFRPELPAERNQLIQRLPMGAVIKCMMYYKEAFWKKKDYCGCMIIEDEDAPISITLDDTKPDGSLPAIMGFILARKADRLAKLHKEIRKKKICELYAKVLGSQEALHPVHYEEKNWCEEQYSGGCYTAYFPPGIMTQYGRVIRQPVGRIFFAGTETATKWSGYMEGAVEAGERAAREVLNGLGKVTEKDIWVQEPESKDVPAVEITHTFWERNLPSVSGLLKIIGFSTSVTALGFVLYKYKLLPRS
The test is classed as biochemical. The following applies: Table 7.

In test [4] the target is T5, SSAO (Homo sapiens, UniProt Q16853).
T5 construct: purchased Sigma
T5 sequence (Q16853 1-763): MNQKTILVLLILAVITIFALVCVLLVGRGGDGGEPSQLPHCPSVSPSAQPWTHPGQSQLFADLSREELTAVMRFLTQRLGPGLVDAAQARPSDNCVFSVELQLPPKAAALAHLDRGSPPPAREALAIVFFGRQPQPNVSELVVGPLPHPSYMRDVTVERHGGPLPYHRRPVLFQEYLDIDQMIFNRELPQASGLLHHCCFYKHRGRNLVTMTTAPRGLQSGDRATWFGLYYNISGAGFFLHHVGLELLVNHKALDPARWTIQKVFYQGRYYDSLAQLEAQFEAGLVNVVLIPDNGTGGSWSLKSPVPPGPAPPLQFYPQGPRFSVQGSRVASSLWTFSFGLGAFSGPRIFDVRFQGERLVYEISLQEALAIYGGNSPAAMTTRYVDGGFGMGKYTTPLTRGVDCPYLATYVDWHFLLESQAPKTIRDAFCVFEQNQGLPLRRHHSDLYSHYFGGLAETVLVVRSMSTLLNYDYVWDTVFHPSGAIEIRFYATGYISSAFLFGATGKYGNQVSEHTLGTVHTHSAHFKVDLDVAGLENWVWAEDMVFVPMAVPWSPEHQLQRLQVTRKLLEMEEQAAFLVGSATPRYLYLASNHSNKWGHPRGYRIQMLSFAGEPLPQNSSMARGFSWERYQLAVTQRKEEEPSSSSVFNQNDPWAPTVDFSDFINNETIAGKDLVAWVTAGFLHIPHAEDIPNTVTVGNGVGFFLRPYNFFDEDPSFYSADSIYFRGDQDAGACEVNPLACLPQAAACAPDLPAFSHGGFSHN
The test is classed as biochemical.
Experimental: (§2) All amine oxidase assays were performed with concentrations as above. MAO-A and MAO-B enzymes were purchased from Sigma. The catalytic activity of MAO-A and MAO-B was determined using the Promega MAO-Glo assay kit (substrate included), with clorgyline and deprenyl as reference inhibitor controls, respectively. DAO was purchased from Sigma, and the catalytic activity was determined using the Promega ROS-Glo assay kit, with aminoguanidine as the reference inhibitor control. SSAO was purchased from Sigma. SSAO catalytic activity was determined using the Promega MAO-Glo assay kit, with mofegiline as the reference inhibitor control.

For a further test, the target named is T6, DAO (Sus scrofa, UniProt Q9TRC7).
T6 construct: purchased Sigma
T6 sequence (Q9TRC7 25-755): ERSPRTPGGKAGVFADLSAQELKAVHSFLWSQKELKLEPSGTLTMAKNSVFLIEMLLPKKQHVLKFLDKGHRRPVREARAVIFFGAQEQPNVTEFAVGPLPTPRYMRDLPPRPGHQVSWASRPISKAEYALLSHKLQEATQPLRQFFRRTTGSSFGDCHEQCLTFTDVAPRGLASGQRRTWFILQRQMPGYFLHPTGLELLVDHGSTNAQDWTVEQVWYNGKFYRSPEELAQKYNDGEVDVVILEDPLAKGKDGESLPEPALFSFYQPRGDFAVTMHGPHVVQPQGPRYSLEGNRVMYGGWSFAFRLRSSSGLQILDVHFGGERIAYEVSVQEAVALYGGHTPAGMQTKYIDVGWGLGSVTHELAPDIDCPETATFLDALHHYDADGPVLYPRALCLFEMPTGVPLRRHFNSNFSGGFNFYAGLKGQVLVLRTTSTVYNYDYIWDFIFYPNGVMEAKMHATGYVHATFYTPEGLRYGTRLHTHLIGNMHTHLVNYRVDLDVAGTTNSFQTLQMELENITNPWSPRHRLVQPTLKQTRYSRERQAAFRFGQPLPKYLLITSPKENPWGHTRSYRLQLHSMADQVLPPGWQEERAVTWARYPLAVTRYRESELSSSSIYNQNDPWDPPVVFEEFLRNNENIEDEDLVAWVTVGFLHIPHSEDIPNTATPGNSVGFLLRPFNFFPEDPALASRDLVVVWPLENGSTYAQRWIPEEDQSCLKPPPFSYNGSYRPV
The class given is biochemical. The following applies: Table 7.

The target in a further test is T7, MAO-B (Homo sapiens, UniProt P27338).
T7 construct: purchased Sigma
T7 sequence (P27338 1-520): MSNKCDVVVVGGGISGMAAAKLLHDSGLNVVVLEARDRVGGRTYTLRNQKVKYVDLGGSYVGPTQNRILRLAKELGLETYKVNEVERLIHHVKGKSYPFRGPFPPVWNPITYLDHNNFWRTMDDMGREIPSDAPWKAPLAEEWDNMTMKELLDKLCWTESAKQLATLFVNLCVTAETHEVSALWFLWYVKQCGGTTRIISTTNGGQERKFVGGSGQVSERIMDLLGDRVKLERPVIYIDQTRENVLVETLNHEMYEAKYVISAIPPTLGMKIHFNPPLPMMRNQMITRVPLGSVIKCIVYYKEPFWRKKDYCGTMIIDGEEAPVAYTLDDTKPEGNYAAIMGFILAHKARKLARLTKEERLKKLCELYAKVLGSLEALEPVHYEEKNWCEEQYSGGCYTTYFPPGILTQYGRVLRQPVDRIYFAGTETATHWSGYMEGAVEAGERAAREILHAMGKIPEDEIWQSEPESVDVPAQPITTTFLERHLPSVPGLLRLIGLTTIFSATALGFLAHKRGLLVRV
The test is classed as biochemical. The conditions noted are these: Table 7.

The target of test [5] is T5, SSAO. Nature of the test: Assessment of compound as a substrate for SSAO (Amplex red). The class given is biochemical. The following applies: hydrogen peroxide quantified with Amplex red kit; benzylamine positive control.
The target in test [6] is T3, LOXL3. More on the design: method as in PMID 30536539, PMID 28471663. The following applies: literature compounds; cited from earlier work.
[7] abbreviates: supplementary csv, unit inferred.

The structures appear in SMILES notation. Where “and” joins values, the source holds several entries; their conditions need not be identical. Identical values can stand only once. Counter-ions that a name gives are not always drawn. Like-named read-outs stand apart in the source and are kept apart here.

Experimental for DAO: as §2
Experimental for MAO-A: as §2
Experimental for MAO-B: as §2

In the case of `N#CCCN` [BAPN, β-aminopropionitrile, reference compound], the half-inhibitory concentration (IC50) was found to be 4.26 µM on LOXL2 [1] (read-out: LOXL2, 20 min, IC50); 0.665 µM on LOXL2 [1] (read-out: LOXL2, 1 h, IC50); 0.372 µM at LOXL2 [1] (read-out: LOXL2, 3 h, IC50); 0.665 µM on LOXL2 [1] (read-out: LOXL2 IC50); 3.14 µM against LOX; 0.31 µM on LOXL3 [3]. At LOXL2 [2], the “LOXL2 inhibition at 10 × IC50 before dilution” value was “complete inhibition”. Besides, at LOXL2 [2], the “mode of LOXL2 inhibition” value was “irreversible inhibitor”.

For `Cn1cc(-c2cc(S(C)(=O)=O)cc(S(=O)(=O)c3csc(CN)n3)c2)cn1` [Compound 22c, (4-((3-(1-Methyl-1H-pyrazol-4-yl)-5-(methylsulfonyl)phenyl)sulfonyl)thiazol-2-yl)methanamine Hydrochloride], the half-inhibitory concentration (IC50) against MAO-A was over 100 µM; against SSAO [4] (Table 7), over 100 µM; against LOX (Table 6, 1 h preincubation) it was over 100 µM; at LOX (setting [7]), over 100 µM; against LOXL3 [3] it was 7.56 µM and 6.69 µM; on DAO it was over 100 µM. This compound also had an IC50 on MAO-B of over 100 µM.

For the compound `CCc1cc(-c2cnn(C)c2)cc(S(=O)(=O)c2cnc(CN)s2)c1` [Compound 21b, (5-((3-Ethyl-5-(1-methyl-1H-pyrazol-4-yl)phenyl)sulfonyl)thiazol-2-yl)methanamine Hydrochloride], the IC50 at SSAO [4] was 28.6 µM and 19.6 µM. For the same compound, at SSAO [5], the “substrate of SSAO” value was “not a substrate of SSAO”.

On to `Cc1c(-c2cccc(S(=O)(=O)N(C)C)c2)c2ncccc2n1C/C(F)=C/CN` [Compound 1], for which the “activity for LOXL2 and LOXL3 within x-fold” value at LOXL3 [6] is at most 3 fold.

`NCc1cc(Oc2cccc(C(=O)N3C[C@@H](O)[C@H](F)C3)c2)nc(C(F)(F)F)c1` [Compound 2]: at LOXL3 [6], the “activity for LOXL2 and LOXL3 within x-fold” value was at most 3 fold.

As for `CS(=O)(=O)c1cc(-c2ccccc2)cc(S(=O)(=O)c2csc(CN)n2)c1` [Compound 22b, (4-((5-(Methylsulfonyl)-[1,1′-biphenyl]-3-yl)sulfonyl)thiazol-2-yl)methanamine Hydrochloride], the IC50 is over 100 µM against MAO-A; over 100 µM on SSAO [4] (Table 7); over 100 µM on LOX (Table 6, 1 h preincubation); over 100 µM against LOX (setting [7]); 3.86 µM and 4.26 µM on LOXL3 [3]; over 100 µM against DAO. Besides, on MAO-B, the IC50 is over 100 µM.

For `Cn1cc(-c2cc(S(C)(=O)=O)cc(S(=O)(=O)c3cnc(CN)s3)c2)cn1` [Compound 21a, (5-((3-(1-Methyl-1H-pyrazol-4-yl)-5-(methylsulfonyl)phenyl)sulfonyl)thiazol-2-yl)methanamine Hydrochloride], the IC50 at MAO-A is over 100 µM; against SSAO [4] (Table 7), 13.3 µM and 17.2 µM; on LOX (Table 6, 1 h preincubation), 3.42 µM and 2.65 µM; against LOXL3 [3] it was 1.22 µM and 1.51 µM; against LOXL3 [3] (Table 6, 1 h preincubation), about 1 µM; at DAO, over 100 µM. On MAO-B, this compound showed an IC50 of over 100 µM.
